Experimental data reported in DBAASP.
In brackets after ≈: the same amount, converted by molar mass. Several values for one entry are separate records, joined by “and”; a condition that tells them apart may be missing. Identical values can stand only once. One block for each compound: values may come before it.

How the values were obtained:
Assay in all cases: ≥ marks a high value that may be exact or a test limit, other limits are often not marked, values filed in µg/mL are converted to µM
[1] = test system: Pseudomonas aeruginosa CUN 4158-02
[2] = test system: Stenotrophomonas maltophilia CUN 3998-00
[3] = test system: Bordetella bronchiseptica CUN 11844-99
[4] = test system: Pseudomonas aeruginosa ATCC 27853
[5] = test system: Acinetobacter baumannii ATCC 19606
[6] = test system: Staphylococcus aureus ATCC 25923
[7] = test system: Escherichia coli ATCC 25922
[8] = test system: Staphylococcus aureus ATCC 43300
[9] = test system: Staphylococcus aureus CUN 3792-99
[10] = test system: Klebsiella pneumoniae PTCC 1388
[11] = test system: Staphylococcus aureus PTCC 1431
[12] = test system: Streptococcus dysgalactiae PTCC 1074
[13] = test system: Streptococcus agalactiae PTCC 1365
[14] = test system: Escherichia coli HP101BA 7601c
[15] = test system: Pseudomonas aeruginosa ATCC 9027
[16] = test system: Staphylococcus aureus USA 300
[17] = test system: Escherichia coli ATCC 35218
Acinetobacter baumannii = test system: Acinetobacter baumannii
[18] = test system: Staphylococcus aureus JC114
Klebsiella pneumoniae = test system: Klebsiella pneumoniae
[19] = test system: Streptococcus pyogenes ATCC 19615
Staphylococcus aureus = test system: Staphylococcus aureus
[20] = test system: Klebsiella pneumoniae ATCC 700603
[21] = test system: Enterococcus faecalis ATCC 29212
Escherichia coli = test system: Escherichia coli
[22] = test system: Pseudomonas aeruginosa JC115
[23] = test system: Staphylococcus aureus USA 100
Aspergillus flavus = test system: Aspergillus flavus
Escherichia coli ML-35p = test system: Escherichia coli ML-35p
Listeria ivanovii = test system: Listeria ivanovii
Bacillus megaterium = test system: Bacillus megaterium
Escherichia coli JC113 = test system: Escherichia coli JC113
Bacillus subtilis JC443 = test system: Bacillus subtilis JC443
[24] = test system: Candida parapsilosis ATCC 22019
Escherichia coli D21 = test system: Escherichia coli D21
Saccharomyces cerevisiae = test system: Saccharomyces cerevisiae
[25] = test system: Staphylococcus aureus ATCC BAA-44
[26] = test system: Candida albicans ATCC 90028
[27] = test system: Aeromonas salmonicida NCIMB 1102
[28] = test system: Staphylococcus aureus IAM 1011
[29] = test system: Vibrio parahaemolyticus Vp+1
[30] = test system: Shewanella putrefaciens IAM 1509
[31] = test system: Bacillus subtilis IAM 1026
[32] = test system: Vibrio anguillarum NCIMB 829
[33] = test system: Photobacterium damselae subsp. piscicida Sp 9587
[34] = test system: Escherichia coli JCM 1649
Salmonella typhimurium = test system: Salmonella typhimurium

- MIC [1]: 11.5 µM (≈ 32 µg/mL)
- MIC [2]: 22.9 µM (≈ 64 µg/mL)
- MIC [3]: 1.43 µM (≈ 4 µg/mL)
- MIC [4]: 5.73 µM (≈ 16 µg/mL)
- MIC [5]: 5.73 µM (≈ 16 µg/mL)
- MIC [6]: 5.73 µM (≈ 16 µg/mL)
- MIC [7]: 5.73 µM (≈ 16 µg/mL)
- MIC [8]: 5.73 µM (≈ 16 µg/mL)
- MIC [9]: 5.73 µM (≈ 16 µg/mL)
Compound: NCCCC[C@H](NC(=O)CN)C(=O)N[C@@H](CCCCN)C(=O)N[C@@H](Cc1ccc(O)cc1)C(=O)N[C@@H](CCCN=C(N)N)C(=O)N[C@@H](CCCN=C(N)N)C(=O)N[C@@H](Cc1ccccc1)C(=O)N[C@@H](CCCN=C(N)N)C(=O)N[C@@H](Cc1c[nH]c2ccccc12)C(=O)N[C@@H](CCCCN)C(=O)N[C@@H](Cc1ccccc1)C(=O)N[C@@H](CCCN=C(N)N)C(=O)N[C@@H](CCCCN)C(=O)NCC(=O)N[C@@H](CCCN=C(N)N)C(=O)N[C@@H](Cc1ccccc1)C(=O)N[C@@H](Cc1c[nH]c2ccccc12)C(=O)N[C@@H](Cc1ccccc1)C(=O)N[C@@H](Cc1c[nH]c2ccccc12)C(=O)NCC(N)=O [GKKYRRFRWKFRKGRFWFWG]

- MIC [10]: 19.7 µM (≈ 31.2 µg/mL)
- MIC [11]: 22.2 µM (≈ 35.2 µg/mL)
- MIC [12]: 20.9 µM (≈ 33.2 µg/mL)
- MIC [13]: 15.6 µM (≈ 24.7 µg/mL)
- MIC [14]: 15.3 µM (≈ 24.2 µg/mL)
Compound: CC(C)C[C@H](NC(=O)[C@H](C)NC(=O)[C@H](C)NC(=O)[C@H](CC(N)=O)NC(=O)[C@H](Cc1ccccc1)NC(=O)[C@H](CC(C)C)NC(=O)[C@@H]1CCCN1C(=O)[C@H](CCCCN)NC(=O)[C@H](CC(C)C)NC(=O)[C@@H](N)Cc1ccccc1)C(=O)N[C@@H](CCCCN)C(=O)N[C@@H](CC(C)C)C(=O)N[C@@H](CC(C)C)C(=O)N1CCC[C@H]1C(N)=O [FLKPLFNAALKLLP]

- MIC [15]: > 100 µM
- MIC [16]: ≥ 50 µM
- MIC [17]: ≥ 200 µM
- MIC (Acinetobacter baumannii): ≥ 100 µM
- MIC [18]: ≥ 121 µM
- MIC (Klebsiella pneumoniae): > 100 µM
- MIC [19]: 25 µM (≈ 26.9 µg/mL)
- MIC [4]: > 200 µM and 100 µM
- MIC (Staphylococcus aureus): 100 µM (≈ 108 µg/mL)
- MIC [20]: > 100 µM
- MIC [21]: 50 µM and 100 µM
- MIC (Escherichia coli): > 100 µM
- MIC [22]: ≥ 88 µM
- MIC [23]: ≥ 50 µM
- MIC (Aspergillus flavus): ≥ 200 µM
- MIC [5]: > 100 µM
- MIC (Escherichia coli ML-35p): 30 µM (≈ 32.3 µg/mL)
- MIC (Listeria ivanovii): ≥ 50 µM
- MIC (Bacillus megaterium): 3 µM (≈ 3.23 µg/mL)
- MIC (Escherichia coli JC113): ≥ 116 µM
- MIC (Bacillus subtilis JC443): ≥ 149 µM
- MIC [24]: ≥ 50 µM
- MIC [8]: > 100 µM
- MIC (Escherichia coli D21): ≥ 100 µM
- MIC (Saccharomyces cerevisiae): 12.5 µM (≈ 13.4 µg/mL)
- MIC [25]: 25 µM (≈ 26.9 µg/mL)
- MIC [26]: ≥ 100 µM
Compound: CC[C@H](C)[C@H](NC(=O)[C@H](CCCN=C(N)N)NC(=O)[C@H](CO)NC(=O)[C@H](CC(C)C)NC(=O)[C@H](Cc1ccccc1)NC(=O)[C@H](Cc1ccccc1)NC(=O)[C@@H](N)Cc1ccccc1)C(=O)N[C@@H](Cc1ccccc1)C(N)=O [FFFLSRIF]

- MIC [27]: 9.06 µM (≈ 25 µg/mL)
- MIC [28]: 4.53 µM (≈ 12.5 µg/mL)
- MIC [30]: 2.27 µM (≈ 6.25 µg/mL)
- MIC [31]: 2.27 µM (≈ 6.25 µg/mL)
- MIC [32]: 4.35 µM (≈ 12 µg/mL)
- MIC [33]: 2.27 µM (≈ 6.25 µg/mL)
- MIC [34]: 4.53 µM (≈ 12.5 µg/mL)
- MIC (Salmonella typhimurium): 4.53 µM (≈ 12.5 µg/mL)
Compound: CC[C@H](C)[C@H](NC(=O)[C@H](CCCCN)NC(=O)CNC(=O)[C@H](CC(C)C)NC(=O)[C@@H](NC(=O)[C@H](CCCCN)NC(=O)[C@H](CCCNC(=N)N)NC(=O)[C@H](Cc1c[nH]c2ccccc12)NC(=O)[C@@H](N)CC(N)=O)[C@@H](C)CC)C(=O)N[C@@H](C)C(=O)N[C@@H](CCCCN)C(=O)N[C@H](C(=O)N[C@@H](C)C(=O)N[C@@H](C)C(=O)NCC(=O)N[C@@H](CC(C)C)C(=O)N[C@@H](CC(C)C)C(=O)NCC(=O)N[C@@H](CO)C(=O)N[C@@H](CCSC)C(=O)N[C@@H](CC(C)C)C(=O)N[C@@H](C)C(=O)NCC(=O)N[C@@H](Cc1ccc(O)cc1)C(=O)N[C@@H](CCC(N)=O)C(=O)N[C@H](C(=O)O)C(C)C)C(C)C [NWRKILGKIAKVAAGLLGSMLAGYQV]
- MIC [29]: 9.06 µM (≈ 25 µg/mL)
